Assay results: patent US9573970B2, “4-{4-[(1E)-4-(2,9-diazaspiro[5.5]undec-2-yl)but-1-en-1-yl]-2-methylbenzyl}-5-(propan-2-yl)-1H-pyrazol-3-yl beta-D glucopyranoside acetate” (Eli Lilly and Company, priority 2013, dated 2017)

Tested on: male rats with STZ-induced diabetes
Assay: Mixed meal tolerance test (MTT) in male rats with streptozotocin induced diabetes
Assay type: in vivo, rat
Details: 60 mg/kg oral, mean ± SE
Method: The test compound is formulated by adding a vehicle of 1% hydroxyethylcellulose (HEC), 0.25% Tween® 80 w/antifoam 0.05% to preweighed test compound to make a 2.5 mg/ml solution. The mixture is probe sonicated for approximately 30 seconds. The resulting solution is used as a stock solution, from which the lower concentration dose solutions are prepared by dilution with the vehicle. STZ, 45 mg/kg, is formulated by dissolving in 0.1M Citrate buffer in 3 ml aliquots and stored in the dark on ice, when not being administered. A high fat content mixed meal (Bio-Serv® Rodent Diet F3282 High Fat) comprising Fat Calories (60%), Carbohydrate Calories (26%) and Protein Calories (15%) is utilized. Single housed Sprague Dawley rats are allowed to acclimate for a period of 3 to 7 days.
In an effort to ensure that the animals have not recently fed, STZ is administered in the afternoon, approximately six hours into the light cycle (lights on 6 am, lights off 6 pm). The animals are anesthetized with isoflurane and STZ is delivered via tail vein injection. Once animals regain consciousness, they are returned to housing and allowed to recover for 7 days.
On the two days immediately prior to the meal tolerance test (MTT) all rats are given a small amount (2-4 g) of the F3282 diet, so they became acclimated to it prior to receiving it during the experiment. On the evening before the experiment, the rats are moved into clean cages and their food is removed. The following morning animals are weighed and a blood sample is taken by tail snip for glucose measurement (Abbott AlphaTRAK™ glucometers: code 29) Animals are grouped n=6 based on fasted body weight and glucose. Thirty minutes after the test compound is orally administered, two glucose measurements are collected. Then a five gram pellet of Bio-Serv® diet 3282 is given. After 20 minutes remaining food is taken away and weighed. Blood samples are taken at 20, 40, 60 and 120 minutes for glucose measurement.

SMILES: C[C@H]1O[C@H](O[C@H]2[C@H](O)[C@@H](O)[C@@H](O[C@H]3[C@H](O)[C@@H](O)C(O)O[C@@H]3CO)O[C@@H]2CO)[C@H](O)[C@@H](O)[C@@H]1N[C@H]1C=C(CO)[C@@H](O)[C@H](O)[C@H]1O (stereo partly drawn) [Acarbose, reference compound]
- Glucose value, 0 min. (30 min after compound, before meal): 124 ± 16.9 mg/dL
- Baseline Adjusted AUC (glucose) (MTT): 23877 ± 4649
- Glucose value, 20 min.: 181 ± 22.8 mg/dL
- Glucose value, 40 min.: 301.3 ± 51.2 mg/dL
- Glucose value, 60 min.: 371.5 ± 63.9 mg/dL
- Glucose value, 120 min.: 433.7 ± 83 mg/dL
